# Experimental data published in patent publication US20260001914A1, “MACROCYCLIC PEPTIDES TARGETING KRAS” (Merck Sharp & Dohme LLC, priority 2022, published 2026).
# *1 amine or outer side, *2 acyl side, *3 side chain or, on linkers, in order; H or OH if unused. Where a SMILES comes first, the peptide text is derived from it. Bridges are numbered along the chain shown (N, C = ends). [ ]: non-standard residue; d: D form. cBu(1-CO,cis-3-CH2NH) = O=C([C@H]1C[C@@H](CN[*:1])C1)[*:2]; NMeNva(5-imidazol-1-yl) = CN[C@@H](CCCn1ccnc1)C(=O)O; Phe(4-guanidino) = N=C(N)Nc1ccc(C[C@H](N)C(=O)O)cc1; X59 = O=C([C@H](Cc1ccc(CN2CCCC2)cc1)N[*:1])[*:2]; Ala(pyrimidin-5-yl) = N[C@@H](Cc1cncnc1)C(=O)O; NMePhe(3-Me) = CN[C@@H](Cc1cccc(C)c1)C(=O)O; NMePhe(4-Me) = CN[C@@H](Cc1ccc(C)cc1)C(=O)O; X37 = O=C([C@H](Cc1cnc(F)cc1F)N[*:1])[*:2]; X7 = C[C@H](N[*:1])C12CC(C(=O)[*:2])(C1)C2; X13 = O=C([C@H](Cc1ccncc1F)N[*:1])[*:2]; Nle(5,5-F2) = CC(F)(F)CC[C@H](N)C(=O)O; Phe(4-F) = N[C@@H](Cc1ccc(F)cc1)C(=O)O; NHCH2CH2SCH2CO = O=C(CSCCN[*:1])[*:2]; Phe(2-F) = N[C@@H](Cc1ccccc1F)C(=O)O; NMe3Pal = CN[C@@H](Cc1cccnc1)C(=O)O; X1 = O=C(C12CC(CN[*:1])(C1)C2)[*:2]; X17 = O=C([C@H](CCCCF)N[*:1])[*:2]; X41 = COCCC[C@H](N[*:1])C(=O)[*:2]; Aha = [N-]=[N+]=NCC[C@H](N)C(=O)O; Ala(cPr) = N[C@@H](CC1CC1)C(=O)O; NMeF = CN[C@@H](Cc1ccccc1)C(=O)O; PhLac = O=C(O)[C@@H](O)Cc1ccccc1; X4 = O=C([C@H](CCCF)N[*:1])[*:2]; 3Pal = N[C@@H](Cc1cccnc1)C(=O)O; 4Pal = N[C@@H](Cc1ccncc1)C(=O)O; Ahp(2) = CCCCC[C@H](N)C(=O)O; Cba = N[C@@H](CC1CCC1)C(=O)O; NMeNle = CCCC[C@H](NC)C(=O)O; hLeu = CC(C)CC[C@H](N)C(=O)O; αMeC = C[C@](N)(CS)C(=O)O; NMeA = CN[C@@H](C)C(=O)O; Nle = CCCC[C@H](N)C(=O)O; Nva = CCC[C@H](N)C(=O)O
# Target: KRAS-G12D protein (Homo sapiens, UniProt P01116, G12D)
# Assay: SOS-mediated nucleotide exchange assay (BODIPY-GDP / Tb-streptavidin TR-FRET)
# Assay type: biochemical
# KRAS-G12D protein, sequence (P01116 1-188 isoform P01116-2 G12D): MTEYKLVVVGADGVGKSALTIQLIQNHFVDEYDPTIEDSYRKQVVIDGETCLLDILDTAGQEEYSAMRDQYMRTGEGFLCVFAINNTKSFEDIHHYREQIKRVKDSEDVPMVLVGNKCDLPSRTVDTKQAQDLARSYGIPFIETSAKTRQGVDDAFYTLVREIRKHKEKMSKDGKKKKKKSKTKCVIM
row,SMILES,EC50 [nM]
1,"CCCC[C@@H]1NC(=O)[C@H](Cc2cccnc2)NC(=O)[C@H](C)N(C)C(=O)[C@H](Cc2ccc(OC)cc2)NC(=O)C23CC(CNC(=O)[C@H](Cc4cccnc4)N(C)C(=O)[C@H](CCCC)NC(=O)[C@H](Cc4ccccc4F)NC1=O)(C2)C3 [compound 169, cyclo(TyrOMe-NMeA-3Pal-Nle-Phe2F-Nle-NMe3Pal-amBCP)] (cyclo([3Pal][Nle][Phe(2-F)][Nle][NMe3Pal][X1]Y(Me)[NMeA]))",757
2,"C[C@H]1C(=O)N[C@@H](Cc2cncnc2)C(=O)N[C@@H](CCCCF)C(=O)N[C@@H](Cc2ccccc2F)C(=O)N[C@@H](CCCCF)C(=O)N(C)[C@@H](Cc2ccccc2)C(=O)NCC23CC(C2)(C3)C(=O)O[C@@H](Cc2ccccc2)C(=O)N1C [compound 128, cyclo(FLac-NMeA-PyrimAla-NleF-Phe2F-NleF-NMeF-amBCP)] (cyclo([NMeA][Ala(pyrimidin-5-yl)][X17][Phe(2-F)][X17][NMeF][X1][PhLac]))",37.4
3,"Cc1cccc(C[C@H]2C(=O)NCC34CC(C3)(C4)C(=O)O[C@@H](Cc3ccccc3)C(=O)N(C)[C@@H](C)C(=O)N[C@@H](Cc3cncnc3)C(=O)N[C@@H](CC3CC3)C(=O)N[C@@H](Cc3ccncc3F)C(=O)N[C@@H](CCC(C)C)C(=O)N2C)c1 [compound 279, cyclo(FLac-NMeA-PyrimAla-cPrA-4Pal2F-hL-NMePhe3Me-amBCP)] (cyclo([Ala(cPr)][X13][hLeu][NMePhe(3-Me)][X1][PhLac][NMeA][Ala(pyrimidin-5-yl)]))",3
4,"CCCC[C@@H]1NC(=O)[C@H](Cc2ccccc2F)NC(=O)C(CC2CC(F)(F)C2)NC(=O)[C@H](Cc2cncnc2)NC(=O)[C@H](C)N(C)C(=O)[C@H](Cc2ccccc2)OC(=O)C23CC(CNC(=O)[C@H](Cc4cccnc4)N(C)C1=O)(C2)C3 (single isomer, unassigned) [compound 122, cyclo(FLac-NMeA-PyrimAla-rF2Cba-Phe2F-Nle-NMe3Pal-amBCP)]",236
5,"CCCC[C@@H]1NC(=O)[C@H](Cc2ccc(OC)cc2)NC(=O)[C@H](CC2CCC2)NC(=O)[C@H](Cc2cccnc2)NC(=O)[C@H](CCCNC(=N)N)NC(=O)[C@H](Cc2ccccc2)NC(=O)C23CC(CNC(=O)[C@H](Cc4ccccc4)N(C)C1=O)(C2)C3 [compound 98, cyclo(F-R-3Pal-cBuA-TyrOMe-Nle-NMeF-amBCP)] (cyclo(FR[3Pal][Cba]Y(Me)[Nle][NMeF][X1]))",5.47
6,"CCCC[C@@H]1NC(=O)[C@H](CCCOC)NC(=O)[C@H](CC2CCC2)NC(=O)[C@H](Cc2cccnc2)NC(=O)[C@H](CCCNC(=N)N)NC(=O)[C@H](Cc2ccccc2)NC(=O)CSC[C@@](C)(C(N)=O)NC(=O)[C@H](Cc2ccccc2)N(C)C1=O [compound 55, cyclo(F-R-3Pal-cBuA-NvaOMe-Nle-NMeF-aMeCl-ClAc)] ({CH2CO}-FR[3Pal][Cba][X41][Nle][NMeF][αMeC]-NH2; thioether N-8)",4410
7,"CCCCC[C@@H]1NC(=O)[C@H](Cc2ccc(OC)cc2)NC(=O)[C@H](CC2CCC2)NC(=O)[C@H](Cc2ccc(NC(=N)N)cc2)NC(=O)[C@H](CCCNC(=N)N)NC(=O)[C@H](Cc2ccccc2)NC(=O)CSC[C@@](C)(C(N)=O)NC(=O)[C@H](Cc2ccccc2)N(C)C1=O [compound 346, cyclo(F-R-Phe4Gn-cBuA-TyrOMe-Ahp-NMeF-aMeCl-ClAc)] ({CH2CO}-FR[Phe(4-guanidino)][Cba]Y(Me)[Ahp(2)][NMeF][αMeC]-NH2; thioether N-8)",1.24
8,"CCC[C@@H]1NC(=O)[C@H](Cc2ccc(OC)cc2)NC(=O)[C@H](CC(C)C)NC(=O)[C@H](Cc2ccncc2)NC(=O)[C@H](CCCNC(=N)N)NC(=O)[C@H](Cc2ccc(F)cc2)NC(=O)CSCCNC(=O)[C@H](Cc2ccccc2)N(C)C1=O [compound 88, cyclo(Phe4F-R-4Pal-L-TyrOMe-Nva-NMeF-Cysteamine-ClAc)] (cyclo([4Pal]LY(Me)[Nva][NMeF][NHCH2CH2SCH2CO][Phe(4-F)]R))",3010
9,"CCCC[C@@H]1NC(=O)[C@H](Cc2cccnc2)NC(=O)[C@H](C)N(C)C(=O)[C@H](Cc2ccccc2)NC(=O)C23CC(CNC(=O)[C@H](Cc4cccnc4)N(C)C(=O)[C@H](CCCC)NC(=O)[C@H](Cc4ccccc4F)NC1=O)(C2)C3 [compound 162, cyclo(F-NMeA-3Pal-Nle-Phe2F-Nle-NMe3Pal-amBCP)] (cyclo(F[NMeA][3Pal][Nle][Phe(2-F)][Nle][NMe3Pal][X1]))",313
10,"CCCC[C@@H]1NC(=O)[C@H](Cc2ccccc2F)NC(=O)[C@H](CCN=[N+]=[N-])NC(=O)[C@H](Cc2cccnc2)NC(=O)[C@H](CCCC)N(C)C(=O)[C@H](Cc2ccccc2)OC(=O)C23CC(CNC(=O)[C@H](Cc4cccnc4)N(C)C1=O)(C2)C3 [compound 243, cyclo(FLac-NMeNle-3Pal-DabN3-Phe2F-Nle-NMe3Pal-amBCP)] (cyclo([3Pal][Aha][Phe(2-F)][Nle][NMe3Pal][X1][PhLac][NMeNle]))",3060
11,"C[C@H]1C(=O)N[C@@H](Cc2cncnc2)C(=O)N[C@@H](CC2CC2)C(=O)N[C@@H](Cc2ccccc2F)C(=O)N[C@@H](CCC(C)(F)F)C(=O)N(C)[C@@H](Cc2ccccc2)C(=O)NCC23CC(C2)(C3)C(=O)O[C@@H](Cc2ccccc2)C(=O)N1C [compound 276, cyclo(FLac-NMeA-PyrimAla-cPrA-Phe2F-Nle3F2-NMeF-amBCP)] (cyclo([Ala(cPr)][Phe(2-F)][Nle(5,5-F2)][NMeF][X1][PhLac][NMeA][Ala(pyrimidin-5-yl)]))",1
12,"CCCC[C@@H]1NC(=O)[C@H](Cc2cncnc2)NC(=O)[C@H](C)N(C)C(=O)[C@H](Cc2ccccc2)OC(=O)C23CC(CNC(=O)[C@H](Cc4ccc(C)cc4)N(C)C(=O)[C@H](CCCC)NC(=O)[C@H](Cc4ccccc4F)NC1=O)(C2)C3 [compound 171, cyclo(FLac-NMeA-PyrimAla-Nle-Phe2F-Nle-NMePhe4Me-amBCP)] (cyclo([NMeA][Ala(pyrimidin-5-yl)][Nle][Phe(2-F)][Nle][NMePhe(4-Me)][X1][PhLac]))",19.1
13,"CCCC[C@@H]1NC(=O)[C@H](Cc2cccnc2)NC(=O)[C@H](CCCn2ccnc2)N(C)C(=O)[C@H](Cc2ccccc2)OC(=O)C23CC(CNC(=O)[C@H](Cc4ccccc4)N(C)C(=O)[C@H](CCCC)NC(=O)[C@H](Cc4ccccc4F)NC1=O)(C2)C3 [compound 233, cyclo(FLac-NMeNvalmid-3Pal-Nle-Phe2F-Nle-NMeF-amBCP)] (cyclo([3Pal][Nle][Phe(2-F)][Nle][NMeF][X1][PhLac][NMeNva(5-imidazol-1-yl)]))",28.9
14,"CC(C)CC[C@@H]1NC(=O)[C@H](Cc2cnc(F)cc2F)NC(=O)[C@H](CC2CC2)NC(=O)[C@H](Cc2cncnc2)NC(=O)[C@H](C)N(C)C(=O)[C@H](Cc2ccccc2)OC(=O)C23CC(CNC(=O)[C@H](Cc4ccccc4)N(C)C1=O)(C2)C3 [compound 294, cyclo(FLac-NMeA-PyrimAla-cPrA-3Pal46F2-hL-NMeF-amBCP)] (cyclo([Ala(cPr)][X37][hLeu][NMeF][X1][PhLac][NMeA][Ala(pyrimidin-5-yl)]))",7
15,"CCCC[C@@H]1NC(=O)[C@H](Cc2ccc(CN3CCCC3)cc2)NC(=O)[C@H](CCCn2ccnc2)N(C)C(=O)[C@H](Cc2ccccc2)NC(=O)[C@H]2C[C@@H](CNC(=O)[C@H](Cc3cccnc3)N(C)C(=O)[C@H](CCCC)NC(=O)[C@H](Cc3ccccc3F)NC1=O)C2 [compound 266, cyclo(F-NMeNvalmid-Phe4cPyrr-Nle-Phe2F-Nle-NMe3Pal-c3amCb1c)] (cyclo(F[NMeNva(5-imidazol-1-yl)][X59][Nle][Phe(2-F)][Nle][NMe3Pal][cBu(1-CO,cis-3-CH2NH)]))",215
16,"CCCC[C@@H]1NC(=O)[C@H](Cc2ccc(O)cc2)NC(=O)[C@H](CC(C)C)NC(=O)[C@H](Cc2ccc(OC)cc2)NC(=O)[C@H](CCCNC(=N)N)NC(=O)[C@H](Cc2ccccc2)NC(=O)CSCCNC(=O)[C@H](Cc2ccccc2)N(C)C1=O [compound 72, cyclo(F-R-TyrOMe-L-Y-Nle-NMeF-Cysteamine-ClAc)]",2250
17,"CCCCC[C@@H]1NC(=O)[C@H](Cc2ccc(OC)cc2)NC(=O)[C@H](CC2CCC2)NC(=O)[C@H](Cc2cncnc2)NC(=O)[C@H](CCCNC(=N)N)NC(=O)[C@H](Cc2ccccc2)NC(=O)CSC[C@@](C)(C(N)=O)NC(=O)[C@H](Cc2ccccc2)N(C)C1=O [compound 367, cyclo(F-R-PyrimAla-cBuA-TyrOMe-Ahp-NMeF-aMeCl-ClAc)] ({CH2CO}-FR[Ala(pyrimidin-5-yl)][Cba]Y(Me)[Ahp(2)][NMeF][αMeC]-NH2; thioether N-8)",4.05
18,"CCCCC[C@@H]1NC(=O)[C@H](Cc2ccc(OC)cc2)NC(=O)[C@H](CC2CCC2)NC(=O)[C@H](Cc2cccnc2)NC(=O)[C@H](CCCNC(=N)N)NC(=O)[C@H](Cc2ccccc2F)NC(=O)CSC[C@@](C)(C(N)=O)NC(=O)[C@H](Cc2ccccc2)N(C)C1=O [compound 370, cyclo(Phe2F-R-3Pal-cBuA-TyrOMe-Ahp-NMeF-aMeCl-ClAc)]",14.9
19,"CCCC[C@@H]1NC(=O)[C@H](Cc2cncnc2)NC(=O)[C@H](C)N(C)C(=O)[C@H](Cc2ccccc2)OC(=O)C23CC(C2)(C3)[C@H](C)NC(=O)[C@H](Cc2cccnc2)N(C)C(=O)[C@H](CCCC)NC(=O)[C@H](Cc2ccccc2F)NC1=O [compound 121, cyclo(FLac-NMeA-PyrimAla-Nle-Phe2F-Nle-NMe3Pal-SMeamBCP)] (cyclo([NMe3Pal][X7][PhLac][NMeA][Ala(pyrimidin-5-yl)][Nle][Phe(2-F)][Nle]))",33.5
20,"CCCC[C@@H]1NC(=O)[C@H](CCCCN)NC(=O)[C@H](CCCNC(=N)N)NC(=O)[C@H](Cc2cccc3ccccc23)NC(=O)CSC[C@H](C(N)=O)NC(=O)[C@H](Cc2ccccc2)N(C)C(=O)[C@H](CCCC)NC(=O)[C@H](Cc2ccc(O)cc2)NC1=O [compound 19, cyclo(INal-R-K-Nle-Y-Nle-NMeF-dCl-ClAc)]",1280
21,"CCCC[C@@H]1NC(=O)[C@H](Cc2ccccc2F)NC(=O)[C@H](CCCF)NC(=O)[C@H](Cc2cccnc2)NC(=O)[C@H](C)N(C)C(=O)[C@H](Cc2ccccc2)OC(=O)C23CC(CNC(=O)[C@H](Cc4cccnc4)N(C)C1=O)(C2)C3 [compound 120, cyclo(FLac-NMeA-3Pal-NvaF-Phe2F-Nle-NMe3Pal-amBCP)] (cyclo([3Pal][X4][Phe(2-F)][Nle][NMe3Pal][X1][PhLac][NMeA]))",35.1
